Measurements reported in PubChem BioAssay AID256 (DTP/NCI, 2004).
“And” between values parts separate entries of the source, which are not always exact repeats. Equal entries are not always repeated. Toxic doses and inconclusive results are not listed. Rule for the calls: active = survival T/C of 150% or more; inactive = T/C below 125% in these data.

Tested on: CD2F1 mice, L1210 leukemia ip, survival T/C
Experiment: NCI In Vivo Anticancer Drug Screen. Data for tumor model L1210 Leukemia (intraperitoneal) in CD2F1 (CDF1) mice
Conditions: endpoint: mean survival time, higher = longer survival
Method in brief: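 Ratio T/C, where T is the treated-group value and C the vehicle-dosed control value, from mice implanted with a transplantable tumor.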

[1] = dose: 100.0 mg/kg/injection, schedule: Q01DX001 (ip), vehicle: saline with Tween-80
[2] = dose: 200.0 mg/kg/injection, schedule: Q01DX001 (ip), vehicle: saline with Tween-80
[3] = dose: 400.0 mg/kg/injection, schedule: Q01DX001 (ip), vehicle: saline with Tween-80
[4] = dose: 100.0 mg/kg/injection, schedule: Q04DX003 (ip), vehicle: saline with Tween-80
[5] = dose: 200.0 mg/kg/injection, schedule: Q04DX003 (ip), vehicle: saline with Tween-80
[6] = dose: 400.0 mg/kg/injection, schedule: Q04DX003 (ip), vehicle: saline with Tween-80
[7] = dose: 25.0 mg/kg/injection, schedule: Q04DX002 (ip), vehicle: saline with Tween-80
[8] = dose: 50.0 mg/kg/injection, schedule: Q04DX002 (ip), vehicle: saline with Tween-80
[9] = dose: 100.0 mg/kg/injection, schedule: Q04DX002 (ip), vehicle: saline with Tween-80
[10] = dose: 100.0 mg/kg/injection, schedule: Q01DX001 (ip), vehicle: saline
[11] = dose: 200.0 mg/kg/injection, schedule: Q01DX001 (ip), vehicle: saline
[12] = dose: 200.0 mg/kg/injection, schedule: Q04DX002 (ip), vehicle: saline with Tween-80
[13] = dose: 400.0 mg/kg/injection, schedule: Q04DX002 (ip), vehicle: saline with Tween-80
[14] = dose: 100.0 mg/kg/injection, schedule: Q01DX009 (ip), vehicle: saline with Tween-80
[15] = dose: 200.0 mg/kg/injection, schedule: Q01DX009 (ip), vehicle: saline with Tween-80
[16] = dose: 400.0 mg/kg/injection, schedule: Q01DX009 (ip), vehicle: saline with Tween-80
[17] = dose: 6.25 mg/kg/injection, schedule: Q01DX009 (ip), vehicle: saline with Tween-80
[18] = dose: 12.5 mg/kg/injection, schedule: Q01DX009 (ip), vehicle: saline with Tween-80
[19] = dose: 25.0 mg/kg/injection, schedule: Q01DX009 (ip), vehicle: saline with Tween-80
[20] = dose: 50.0 mg/kg/injection, schedule: Q01DX009 (ip), vehicle: saline
[21] = dose: 100.0 mg/kg/injection, schedule: Q01DX009 (ip), vehicle: saline
[22] = dose: 200.0 mg/kg/injection, schedule: Q01DX009 (ip), vehicle: saline
[23] = dose: 100.0 mg/kg/injection, schedule: Q04DX003 (ip), vehicle: saline
[24] = dose: 200.0 mg/kg/injection, schedule: Q04DX003 (ip), vehicle: saline
[25] = dose: 6.25 mg/kg/injection, schedule: Q04DX003 (ip), vehicle: saline
[26] = dose: 12.5 mg/kg/injection, schedule: Q04DX003 (ip), vehicle: saline
[27] = dose: 25.0 mg/kg/injection, schedule: Q04DX003 (ip), vehicle: saline
[28] = dose: 50.0 mg/kg/injection, schedule: Q01DX009 (ip), vehicle: saline with Tween-80

Measured: T/C

C#CC1(OC(=O)Nc2ccc3c(c2)OCO3)CCCCC1
inactive: [1] 92 % of control | [2] 86 % of control | [3] 95 % of control

Fc1ccc2nc(C(F)(F)F)cc(Br)c2c1
inactive: [4] 103 % of control | [5] 98 % of control | [6] 101 % of control

O=C(C[n+]1cccc2ccccc21)c1ccc([N+](=O)[O-])cc1
inactive: [7] 102 % of control | [8] 98 % of control | [9] 102 % of control

CC[C@H](C)c1occ2c(O)c(C(=O)O)c(=O)cc-2c1C
inactive: [10] 98 % of control | [11] 101 % of control

COc1ccc(C(O)(c2ccccc2)C(O)c2ccccc2)cc1 (stereo not drawn)
inactive: dose: 12.5 mg/kg/injection, schedule: Q04DX002 (ip), vehicle: saline with Tween-80 93 % of control | [7] 86 % of control | [8] 86 % of control | [4] 93 % of control | [5] 87 % of control | [6] 94 % of control and 89 % of control

CC1=CCC(=O)O1
inactive: [9] 102 % of control | [12] 98 % of control | [13] 102 % of control

CN(C)c1ccc(C(=O)c2ccc(N(C)C)cc2)cc1
inactive: [14] 96 % of control | [15] 102 % of control | [16] 109 % of control

O=C(CCl)N1CCc2ccccc21
inactive: dose: 100.0 mg/kg/injection, schedule: Q04DX003 (ip), vehicle: Klucel (hydroxypropylcellulose) (HPC) 98 % of control | dose: 200.0 mg/kg/injection, schedule: Q04DX003 (ip), vehicle: Klucel (hydroxypropylcellulose) (HPC) 103 % of control | dose: 400.0 mg/kg/injection, schedule: Q04DX003 (ip), vehicle: Klucel (hydroxypropylcellulose) (HPC) 97 % of control

CCNC(=O)OC(C)C
inactive: [9] 90 % of control | [12] 102 % of control | [13] 94 % of control

COC(=S)C(c1ccccc1)(c1ccccc1)c1ccccc1
inactive: dose: 100.0 mg/kg/injection, schedule: Q04DX002 (ip), vehicle: Klucel (hydroxypropylcellulose) (HPC) 93 % of control | dose: 200.0 mg/kg/injection, schedule: Q04DX002 (ip), vehicle: Klucel (hydroxypropylcellulose) (HPC) 89 % of control | dose: 400.0 mg/kg/injection, schedule: Q04DX002 (ip), vehicle: Klucel (hydroxypropylcellulose) (HPC) 89 % of control

O=[N+]([O-])c1ccc(-c2cn3ccsc3n2)cc1
inactive: dose: 100.0 mg/kg/injection, schedule: Q01DX001 (ip), vehicle: Klucel (hydroxypropylcellulose) (HPC) 87 % of control | dose: 200.0 mg/kg/injection, schedule: Q01DX001 (ip), vehicle: Klucel (hydroxypropylcellulose) (HPC) 90 % of control | dose: 400.0 mg/kg/injection, schedule: Q01DX001 (ip), vehicle: Klucel (hydroxypropylcellulose) (HPC) 90 % of control

N#CCCOS(=O)(=O)c1ccc(N)c([N+](=O)[O-])c1
inactive: [1] 103 % of control | [14] 93 % of control | [2] 100 % of control | [15] 96 % of control | [3] 102 % of control | [16] 96 % of control

CSC(I)(N(C)C)N(C)C
inactive: dose: 75.0 mg/kg/injection, schedule: Q01DX001 (ip), vehicle: saline 98 % of control | dose: 150.0 mg/kg/injection, schedule: Q01DX001 (ip), vehicle: saline 101 % of control | dose: 300.0 mg/kg/injection, schedule: Q01DX001 (ip), vehicle: saline 98 % of control

O=C1CC2CC1C1C3CCC(CC3)C21 (stereo not drawn)
inactive: dose: 3.13 mg/kg/injection, schedule: Q01DX009 (ip), vehicle: saline with Tween-80 86 % of control | [17] 101 % of control | [18] 90 % of control and 98 % of control

COCc1nccc2c1[nH]c1ccccc12
inactive: [14] 92 % of control | [15] 110 % of control | [16] 107 % of control

Nc1ccnc(SCCCOc2ccccc2)n1
inactive: [9] 104 % of control | [12] 101 % of control | [13] 97 % of control

OC(CC(O)(C(F)(F)F)C(F)(F)F)CC(O)(C(F)(F)F)C(F)(F)F
inactive: [17] 95 % of control | [18] 92 % of control | [19] 90 % of control

Nc1nc(Br)c2ccccc2c1-c1ccc([N+](=O)[O-])cc1
inactive: dose: 50.0 mg/kg/injection, schedule: Q04DX003 (ip), vehicle: DMSO 98 % of control | dose: 100.0 mg/kg/injection, schedule: Q04DX003 (ip), vehicle: DMSO 96 % of control | dose: 200.0 mg/kg/injection, schedule: Q04DX003 (ip), vehicle: DMSO 95 % of control | dose: 400.0 mg/kg/injection, schedule: Q04DX003 (ip), vehicle: DMSO 95 % of control

C=C1C(=O)OC2CC/C=C\CCC12 (stereo not drawn)
inactive: [20] 105 % of control | [21] 97 % of control | [22] 102 % of control

CCOC(=O)CN(CC(=O)OCC)c1ccc(C(C)=O)cc1
inactive: [23] 105 % of control | [24] 94 % of control

Cc1ccnc(=S)[nH]1.[Pd]
inactive: dose: 3.12 mg/kg/injection, schedule: Q04DX003 (ip), vehicle: saline 98 % of control | [25] 102 % of control | [26] 98 % of control | [27] 98 % of control | dose: 50.0 mg/kg/injection, schedule: Q04DX003 (ip), vehicle: saline 102 % of control | [23] 102 % of control | [24] 104 % of control

CCOc1cc2ccc3c4cc(OC)c(OC)cc4c[n+](C)c3c2cc1OCC
inactive: [7] 107 % of control | [8] 111 % of control | [9] 103 % of control

CCCCCCCCCCCCCCCC(=O)NCCOC(C)=O
inactive: [28] 89 % of control | [14] 92 % of control | [4] 92 % of control | [15] 93 % of control | [5] 95 % of control | [6] 97 % of control

CC1=CC(C)(C(Cl)Cl)C=CC1=O (stereo not drawn)
inactive: dose: 75.0 mg/kg/injection, schedule: Q01DX009 (ip), vehicle: saline with Tween-80 101 % of control | [4] 102 % of control | dose: 150.0 mg/kg/injection, schedule: Q01DX009 (ip), vehicle: saline with Tween-80 101 % of control | [5] 95 % of control | dose: 300.0 mg/kg/injection, schedule: Q01DX009 (ip), vehicle: saline with Tween-80 98 % of control | [6] 93 % of control

NC(N)=N/N=C(/c1ccccc1)c1ccc(F)cc1
inactive: [20] 101 % of control

CC1=NN(c2cccc(S(=O)(=O)O)c2)C(=O)C1Cl (stereo not drawn)
inactive: [28] 98 % of control | [14] 95 % of control | [15] 95 % of control

CCCCN1C(=O)C(=O)N(c2cc(C)c(C)cc2C)C1=O
inactive: [18] 100 % of control | [19] 96 % of control | [28] 92 % of control | [14] 90 % of control

C1CC[N-]CC1.C1CC[N-]CC1.[Cl][Pd][Cl]
inactive: [7] 89 % of control | [8] 96 % of control

COC(=O)C1C2CCC(C2)C1C(=O)OC (stereo not drawn)
inactive: [4] 97 % of control | [5] 101 % of control | [6] 93 % of control

CCCCCCCCCCCC(=O)N(C)CCS(=O)(=O)O
inactive: [21] 103 % of control | [22] 101 % of control | dose: 400.0 mg/kg/injection, schedule: Q01DX009 (ip), vehicle: saline 109 % of control

CC(=O)Nc1ccc(S(=O)(=O)/N=S(\C)c2ccc(C)cc2)cc1 (stereo not drawn)
inactive: dose: 100.0 mg/kg/injection, schedule: Q01DX009 (ip), vehicle: Klucel (hydroxypropylcellulose) (HPC) 95 % of control | dose: 200.0 mg/kg/injection, schedule: Q01DX009 (ip), vehicle: Klucel (hydroxypropylcellulose) (HPC) 89 % of control | dose: 400.0 mg/kg/injection, schedule: Q01DX009 (ip), vehicle: Klucel (hydroxypropylcellulose) (HPC) 91 % of control | dose: 600.0 mg/kg/injection, schedule: Q01DX009 (ip), vehicle: Klucel (hydroxypropylcellulose) (HPC) 92 % of control

CN(C)CC(CN(C)C)C(=O)O
inactive: dose: 50.0 mg/kg/injection, schedule: Q01DX001 (ip), vehicle: saline 103 % of control | [10] 104 % of control | [11] 108 % of control

O=[N+]([O-])c1cccc(S(=O)(=O)SC(Cl)(Cl)Cl)c1
inactive: [25] 102 % of control | [26] 97 % of control | [27] 102 % of control
